Tested on: non-bacterial prostatitis
Test: Therapeutic effects on non-bacterial prostatitis (Xiaozhiling injection into prostate)
Format: in vivo, SD rats
Details: for Average of Body Weight / Average Volume of Prostate / Average Weight of Prostate / Inhibition of Organ-coefficient / Organ Coefficient: 5 weeks
Procedure: Fifty-five male SD rats were randomly divided into 6 groups, 9 each, except the negative control group for which 10 animals were used. All animals from group 1 to 6 were anesthetized by injection of ketamine under sterile conditions and incised around 1.5 cm with a sterilized surgery scalpel at middle of abdomen. Animals in Group 1 were injected penicillin to prevent infection, and given distill water, 10 ml/kg, once a day, 5 times a week for 5 weeks. Groups from 2 to 6 injected 25% Xiaozhiling into left and right lobes of prostate, 0.1 ml for each lobe and sew the muscle and skin with #1 silk thread. The animals were then given penicillin to prevent infectious. Group 2 was served as negative control group in which animals were treated with distill water by gavage 24 hrs after the Xiaozhiling injection, once a day, 5 times a week for 5 weeks. Group 3 was served as positive control group in which animals were treated with GENURIN by gavage 24 hrs after the Xiaozhiling injection at dose of 60 mg/kg, once a day, 5 times a week (escaping weekend) for 5 weeks. […] On the last dosing day, urine samples from different groups that covered periods of 1, 2 and 3 hrs were collected.
Twenty-four hrs after the last dose, the animals were euthanized and weighed. Volume and weight of prostate were measured. The averages of the prostate weight/volume and organ coefficient (average weight of prostate/average of body weight) were calculated, and statistical analysis performed (t test).
Prostate tissues of animals from different groups were embedded with paraffin. The tissue sections were stained with H&E for histpathological examination by an anatomical pathologist.

S=C=NCCc1ccccc1 [PEITC, phenethyl isothiocyanate]
Average of Body Weight (PEITC 1 mg/kg gavage (Example 13-11)): 377 ± 39.1 g
Average Volume of Prostate (PEITC 1 mg/kg gavage): 0.78 ± 0.16 cm^3
Average Weight of Prostate (PEITC 1 mg/kg gavage): 0.7 ± 0.15 g
Inhibition of Organ-coefficient (PEITC 1 mg/kg gavage): 28.46%
Organ Coefficient (PEITC 1 mg/kg gavage): 0.186 ± 0.03 %
Bleeding: no. of animals with score 0 (PEITC 1 mg/kg, 9 animals): 7
Bleeding: no. of animals with score + (PEITC 1 mg/kg, 9 animals): 2
Bleeding: no. of animals with score ++ (PEITC 1 mg/kg, 9 animals): 0
Bleeding: no. of animals with score +++ (PEITC 1 mg/kg, 9 animals): 0
Chronic Inflammatory Infiltration: no. of animals with score 0 (PEITC 1 mg/kg, 9 animals): 9
Chronic Inflammatory Infiltration: no. of animals with score + (PEITC 1 mg/kg, 9 animals): 0
Chronic Inflammatory Infiltration: no. of animals with score ++ (PEITC 1 mg/kg, 9 animals): 0
Chronic Inflammatory Infiltration: no. of animals with score +++ (PEITC 1 mg/kg, 9 animals): 0
Congestion: no. of animals with score 0 (PEITC 1 mg/kg, 9 animals): 3
Congestion: no. of animals with score + (PEITC 1 mg/kg, 9 animals): 6
Congestion: no. of animals with score ++ (PEITC 1 mg/kg, 9 animals): 0
Congestion: no. of animals with score +++ (PEITC 1 mg/kg, 9 animals): 0
Edema: no. of animals with score 0 (PEITC 1 mg/kg, 9 animals): 3
Edema: no. of animals with score + (PEITC 1 mg/kg, 9 animals): 6
Edema: no. of animals with score ++ (PEITC 1 mg/kg, 9 animals): 0
Edema: no. of animals with score +++ (PEITC 1 mg/kg, 9 animals): 0
Fibrous Exudation: no. of animals with score 0 (PEITC 1 mg/kg, 9 animals): 5
Fibrous Exudation: no. of animals with score + (PEITC 1 mg/kg, 9 animals): 4
Fibrous Exudation: no. of animals with score ++ (PEITC 1 mg/kg, 9 animals): 0
Fibrous Exudation: no. of animals with score +++ (PEITC 1 mg/kg, 9 animals): 0
Histopathological score of prostatitis, Overall Average X ± SD (PEITC 1 mg/kg, 9 animals): 1.83 ± 1.06
Hyperblastosis: no. of animals with score 0 (PEITC 1 mg/kg, 9 animals): 7
Hyperblastosis: no. of animals with score + (PEITC 1 mg/kg, 9 animals): 2
Hyperblastosis: no. of animals with score ++ (PEITC 1 mg/kg, 9 animals): 0
Hyperblastosis: no. of animals with score +++ (PEITC 1 mg/kg, 9 animals): 0
Inflammatory Infiltration: no. of animals with score 0 (PEITC 1 mg/kg, 9 animals): 9
Inflammatory Infiltration: no. of animals with score + (PEITC 1 mg/kg, 9 animals): 0
Inflammatory Infiltration: no. of animals with score ++ (PEITC 1 mg/kg, 9 animals): 0
Inflammatory Infiltration: no. of animals with score +++ (PEITC 1 mg/kg, 9 animals): 0
congestion, edema, fibroid and leukocyte infiltration versus untreated prostatitis animals (slide) (PEITC 1 mg/kg, FIG. 7.5): less severe
urine, 1 h Period (PEITC 1 mg/kg, last dosing day): 5.5 ± 1.0 mL
urine, 2 h Period (PEITC 1 mg/kg, last dosing day): 7.0 ± 0.7 mL
urine, 3 h Period (PEITC 1 mg/kg, last dosing day): 7.9 ± 1.0 mL
Average of Body Weight (PEITC 2 mg/kg gavage (Example 13-11)): 360 ± 24.8 g
Average Volume of Prostate (PEITC 2 mg/kg gavage): 0.82 ± 0.13 cm^3
Average Weight of Prostate (PEITC 2 mg/kg gavage): 0.70 ± 0.12 g
Inhibition of Organ-coefficient (PEITC 2 mg/kg gavage): 27.69%
Organ Coefficient (PEITC 2 mg/kg gavage): 0.188 ± 0.03 %
Bleeding: no. of animals with score 0 (PEITC 2 mg/kg, 9 animals): 8
Bleeding: no. of animals with score + (PEITC 2 mg/kg, 9 animals): 1
Bleeding: no. of animals with score ++ (PEITC 2 mg/kg, 9 animals): 0
Bleeding: no. of animals with score +++ (PEITC 2 mg/kg, 9 animals): 0
Chronic Inflammatory Infiltration: no. of animals with score 0 (PEITC 2 mg/kg, 9 animals): 8
Chronic Inflammatory Infiltration: no. of animals with score + (PEITC 2 mg/kg, 9 animals): 0
Chronic Inflammatory Infiltration: no. of animals with score ++ (PEITC 2 mg/kg, 9 animals): 1
Chronic Inflammatory Infiltration: no. of animals with score +++ (PEITC 2 mg/kg, 9 animals): 0
Congestion: no. of animals with score 0 (PEITC 2 mg/kg, 9 animals): 4
Congestion: no. of animals with score + (PEITC 2 mg/kg, 9 animals): 5
Congestion: no. of animals with score ++ (PEITC 2 mg/kg, 9 animals): 0
Congestion: no. of animals with score +++ (PEITC 2 mg/kg, 9 animals): 0
Edema: no. of animals with score 0 (PEITC 2 mg/kg, 9 animals): 6
Edema: no. of animals with score + (PEITC 2 mg/kg, 9 animals): 3
Edema: no. of animals with score ++ (PEITC 2 mg/kg, 9 animals): 0
Edema: no. of animals with score +++ (PEITC 2 mg/kg, 9 animals): 0
Fibrous Exudation: no. of animals with score 0 (PEITC 2 mg/kg, 9 animals): 5
Fibrous Exudation: no. of animals with score + (PEITC 2 mg/kg, 9 animals): 4
